Laboratory results published in PubChem BioAssay (NCI).
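48-hour exposure; five concentrations; linearly interpolated endpoints. GI50 marks 50% less growth. TGI denotes the concentration required for complete inhibition of growth.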

Columns and labels:
Assay in all cases: NCI-60 cell line screen, 48 h
RXF 393 renal = tested on: RXF 393 renal
SR leukemia = tested on: SR leukemia
MALME-3M melanoma = tested on: MALME-3M melanoma
OVCAR-4 ovarian = tested on: OVCAR-4 ovarian
UACC-62 melanoma = tested on: UACC-62 melanoma
CCRF-CEM leukemia = tested on: CCRF-CEM leukemia
UACC-257 melanoma = tested on: UACC-257 melanoma
SF-539 CNS = tested on: SF-539 CNS
HCT-116 colon = tested on: HCT-116 colon
UO-31 renal = tested on: UO-31 renal

O=C(N/N=C\c1cc(Cl)ccc1O)N/N=C/c1cc(Cl)ccc1O
GI50 (RXF 393 renal): > 100 µM
TGI (RXF 393 renal): > 100 µM
GI50 (SR leukemia): 78.5 µM
TGI (SR leukemia): > 100 µM
GI50 (MALME-3M melanoma): 34.3 µM
TGI (MALME-3M melanoma): > 100 µM
GI50 (OVCAR-4 ovarian): 0.871 µM
TGI (OVCAR-4 ovarian): > 100 µM
GI50 (UACC-62 melanoma): 0.918 µM
TGI (UACC-62 melanoma): > 100 µM
GI50 (CCRF-CEM leukemia): 2.51 µM
TGI (CCRF-CEM leukemia): > 100 µM
GI50 (UACC-257 melanoma): 6.6 µM
TGI (UACC-257 melanoma): > 100 µM
GI50 (SF-539 CNS): 2.32 µM
TGI (SF-539 CNS): > 100 µM
GI50 (HCT-116 colon): 0.565 µM
TGI (HCT-116 colon): > 100 µM
GI50 (UO-31 renal): 0.489 µM
TGI (UO-31 renal): > 100 µM

COc1cc(C(=O)c2c(-c3ccccc3)oc3ccccc23)cc(OC)c1O
GI50 (RXF 393 renal): 1.76 µM
TGI (RXF 393 renal): 8.95 µM
GI50 (SR leukemia): 0.377 µM
TGI (SR leukemia): 23.9 µM
GI50 (MALME-3M melanoma): 1.13 µM
TGI (MALME-3M melanoma): 20.5 µM
GI50 (OVCAR-4 ovarian): 5.46 µM
TGI (OVCAR-4 ovarian): 24.4 µM
GI50 (UACC-62 melanoma): 0.975 µM
TGI (UACC-62 melanoma): 16 µM
GI50 (CCRF-CEM leukemia): 1.71 µM
TGI (CCRF-CEM leukemia): 14.3 µM
GI50 (UACC-257 melanoma): 16 µM
TGI (UACC-257 melanoma): 64.3 µM
GI50 (SF-539 CNS): 1.64 µM
TGI (SF-539 CNS): 5.63 µM
GI50 (HCT-116 colon): 1.04 µM
TGI (HCT-116 colon): 12.5 µM
GI50 (UO-31 renal): 3.14 µM
TGI (UO-31 renal): 19.4 µM

COc1ccc2c3c([nH]c2c1)[C@H]1C[C@H]2[C@H](C[C@@H](O)[C@H](OC)[C@H]2C(=O)O)CN1CC3
TGI (RXF 393 renal): > 100 µM
TGI (SR leukemia): > 100 µM
TGI (MALME-3M melanoma): > 100 µM
TGI (OVCAR-4 ovarian): > 100 µM
TGI (UACC-62 melanoma): > 100 µM
TGI (CCRF-CEM leukemia): > 100 µM
TGI (UACC-257 melanoma): > 100 µM
TGI (SF-539 CNS): > 100 µM
TGI (HCT-116 colon): > 100 µM
TGI (UO-31 renal): > 100 µM

CC1=CC(=O)c2[nH]c3ccccc3c2C1=O
GI50 (RXF 393 renal): 3.47 µM
TGI (RXF 393 renal): 6.74 µM
GI50 (SR leukemia): 5.71 µM
TGI (SR leukemia): 16.7 µM
GI50 (MALME-3M melanoma): 4.85 µM
TGI (MALME-3M melanoma): 8.54 µM
TGI (OVCAR-4 ovarian): 7.58 µM
GI50 (UACC-62 melanoma): 4.21 µM
TGI (UACC-62 melanoma): 7.67 µM
GI50 (CCRF-CEM leukemia): 3.33 µM
TGI (CCRF-CEM leukemia): 10.6 µM
GI50 (UACC-257 melanoma): 4.57 µM
TGI (UACC-257 melanoma): 8.58 µM
GI50 (SF-539 CNS): 4.28 µM
TGI (SF-539 CNS): 7.79 µM
GI50 (HCT-116 colon): 4.44 µM
TGI (HCT-116 colon): 7.93 µM
GI50 (UO-31 renal): 4 µM
TGI (UO-31 renal): 7.4 µM

C/C(=N\N=C(N)N)c1sc(-c2nc(C)c(/C(C)=N/N=C(N)N)s2)nc1C
TGI (RXF 393 renal): > 95.3 µM
TGI (SR leukemia): > 66.4 µM
TGI (MALME-3M melanoma): > 100 µM
TGI (OVCAR-4 ovarian): > 100 µM
TGI (UACC-62 melanoma): > 100 µM
TGI (CCRF-CEM leukemia): > 100 µM
TGI (UACC-257 melanoma): > 100 µM
TGI (SF-539 CNS): > 100 µM
TGI (HCT-116 colon): > 100 µM
TGI (UO-31 renal): > 100 µM

CCNC1=CC(=O)c2ncccc2C1=O
GI50 (RXF 393 renal): 5.65 µM
TGI (RXF 393 renal): 17.9 µM
GI50 (SR leukemia): 3.71 µM
TGI (SR leukemia): 11 µM
GI50 (MALME-3M melanoma): 1.03 µM
TGI (MALME-3M melanoma): 2.23 µM
GI50 (OVCAR-4 ovarian): 1.64 µM
TGI (OVCAR-4 ovarian): 8.12 µM
GI50 (UACC-62 melanoma): 1.06 µM
TGI (UACC-62 melanoma): 2.3 µM
GI50 (CCRF-CEM leukemia): 6.14 µM
TGI (CCRF-CEM leukemia): 42.4 µM
GI50 (UACC-257 melanoma): 1.42 µM
TGI (UACC-257 melanoma): 3 µM
GI50 (SF-539 CNS): 1.89 µM
TGI (SF-539 CNS): 3.76 µM
GI50 (HCT-116 colon): 3 µM
TGI (HCT-116 colon): 9.7 µM
GI50 (UO-31 renal): 1.76 µM
TGI (UO-31 renal): 7.72 µM

O=C1CCCC2COc3ccc(O)c1c32 (configuration not stated)
TGI (RXF 393 renal): > 100 µM
TGI (SR leukemia): > 100 µM
TGI (MALME-3M melanoma): > 100 µM
TGI (OVCAR-4 ovarian): > 100 µM
TGI (UACC-62 melanoma): > 100 µM
TGI (CCRF-CEM leukemia): > 100 µM
TGI (UACC-257 melanoma): > 100 µM
TGI (SF-539 CNS): > 100 µM
TGI (UO-31 renal): > 100 µM

C[C@@H]1CC[C@H]2C(CN3CCN(CC4=C(C(F)(F)F)O[C@@H]5O[C@@]6(C)CC[C@H]7[C@H](C)CC[C@@H]4[C@@]57OO6)CC3)=C(C(F)(F)F)O[C@@H]3O[C@@]4(C)CC[C@@H]1[C@]32OO4
GI50 (RXF 393 renal): 1.05 µM
TGI (RXF 393 renal): > 54.3 µM
GI50 (SR leukemia): 1.89 µM
TGI (SR leukemia): > 100 µM
GI50 (MALME-3M melanoma): 2.23 µM
TGI (MALME-3M melanoma): > 25.8 µM
GI50 (OVCAR-4 ovarian): 3.17 µM
TGI (OVCAR-4 ovarian): > 100 µM
GI50 (UACC-62 melanoma): 6.35 µM
TGI (UACC-62 melanoma): > 100 µM
GI50 (CCRF-CEM leukemia): 0.605 µM
TGI (CCRF-CEM leukemia): > 100 µM
GI50 (UACC-257 melanoma): 1.95 µM
TGI (UACC-257 melanoma): > 31.5 µM
GI50 (SF-539 CNS): 0.567 µM
TGI (SF-539 CNS): > 100 µM
GI50 (HCT-116 colon): 0.262 µM
TGI (HCT-116 colon): > 35.9 µM
GI50 (UO-31 renal): 2.67 µM
TGI (UO-31 renal): 85.8 µM

O=[N+]([O-])C(=C(c1ccccc1)c1ccccc1)[N+](=O)[O-]
TGI (RXF 393 renal): 6.71 µM
TGI (SR leukemia): 28.5 µM
TGI (OVCAR-4 ovarian): 28.6 µM
TGI (UACC-62 melanoma): 9.56 µM
TGI (CCRF-CEM leukemia): 22.1 µM
TGI (UACC-257 melanoma): 25.8 µM
TGI (SF-539 CNS): 26.5 µM
TGI (HCT-116 colon): 26.3 µM
TGI (UO-31 renal): 36.6 µM

O=C1CCCc2c(O)ccc(O)c21
TGI (RXF 393 renal): > 100 µM
TGI (SR leukemia): 91.2 µM
TGI (MALME-3M melanoma): > 100 µM
TGI (OVCAR-4 ovarian): > 100 µM
TGI (UACC-62 melanoma): > 100 µM
TGI (CCRF-CEM leukemia): 71.7 µM
TGI (UACC-257 melanoma): > 100 µM
TGI (SF-539 CNS): > 100 µM
TGI (HCT-116 colon): > 100 µM
TGI (UO-31 renal): > 100 µM

COCCOCCOCCOCCOc1ccc2c(c1)C(=O)c1nc3ncccc3c(=O)n1-2
GI50 (RXF 393 renal): 2.65 µM
TGI (RXF 393 renal): 9.26 µM
GI50 (SR leukemia): 2.25 µM
TGI (SR leukemia): > 100 µM
GI50 (MALME-3M melanoma): 0.155 µM
TGI (MALME-3M melanoma): 0.339 µM
GI50 (OVCAR-4 ovarian): 1.74 µM
TGI (OVCAR-4 ovarian): 4.23 µM
GI50 (UACC-62 melanoma): 0.371 µM
TGI (UACC-62 melanoma): 1.07 µM
GI50 (CCRF-CEM leukemia): 2.43 µM
TGI (CCRF-CEM leukemia): 7.4 µM
GI50 (UACC-257 melanoma): 0.763 µM
TGI (UACC-257 melanoma): 2.38 µM
GI50 (SF-539 CNS): 0.551 µM
TGI (SF-539 CNS): 1.71 µM
GI50 (HCT-116 colon): 1.56 µM
TGI (HCT-116 colon): 4.46 µM
GI50 (UO-31 renal): 1.53 µM
TGI (UO-31 renal): 6.21 µM

CCn1cc(C2NC(=O)c3cc(F)ccc3N2)c2cccc(Cl)c21 (configuration not stated)
GI50 (RXF 393 renal): 0.149 µM
TGI (RXF 393 renal): 0.674 µM
GI50 (SR leukemia): 0.039 µM
TGI (SR leukemia): > 100 µM
GI50 (MALME-3M melanoma): 2.55 µM
TGI (MALME-3M melanoma): > 100 µM
GI50 (OVCAR-4 ovarian): 2.53 µM
TGI (OVCAR-4 ovarian): > 100 µM
GI50 (UACC-62 melanoma): 0.0843 µM
TGI (UACC-62 melanoma): > 61.9 µM
GI50 (CCRF-CEM leukemia): 0.172 µM
TGI (CCRF-CEM leukemia): > 50.3 µM
GI50 (UACC-257 melanoma): > 100 µM
TGI (UACC-257 melanoma): > 100 µM
GI50 (SF-539 CNS): 0.177 µM
TGI (SF-539 CNS): 0.683 µM
GI50 (HCT-116 colon): 0.177 µM
TGI (HCT-116 colon): > 100 µM
GI50 (UO-31 renal): 2.88 µM
TGI (UO-31 renal): > 100 µM

Cn1cc(/C=C2\C(=O)Nc3cccnc32)c2ccccc21
GI50 (RXF 393 renal): 10.8 µM
TGI (RXF 393 renal): > 25 µM
GI50 (SR leukemia): > 25 µM
TGI (SR leukemia): > 25 µM
GI50 (MALME-3M melanoma): 24.5 µM
TGI (MALME-3M melanoma): > 25 µM
GI50 (OVCAR-4 ovarian): 24.8 µM
TGI (OVCAR-4 ovarian): > 25 µM
GI50 (UACC-62 melanoma): 8.82 µM
TGI (UACC-62 melanoma): > 25 µM
GI50 (CCRF-CEM leukemia): 16 µM
TGI (CCRF-CEM leukemia): > 25 µM
GI50 (UACC-257 melanoma): 13.9 µM
TGI (UACC-257 melanoma): > 25 µM
GI50 (SF-539 CNS): > 25 µM
TGI (SF-539 CNS): > 25 µM
GI50 (HCT-116 colon): 14.7 µM
TGI (HCT-116 colon): > 25 µM
GI50 (UO-31 renal): 4.86 µM
TGI (UO-31 renal): > 25 µM

Clc1ccc(CCN2CCOCC2)c(Cl)c1
TGI (RXF 393 renal): > 100 µM
TGI (SR leukemia): > 100 µM
TGI (MALME-3M melanoma): > 100 µM
TGI (OVCAR-4 ovarian): > 100 µM
TGI (UACC-62 melanoma): > 100 µM
TGI (CCRF-CEM leukemia): > 100 µM
TGI (UACC-257 melanoma): > 100 µM
TGI (SF-539 CNS): > 100 µM
TGI (HCT-116 colon): > 100 µM
TGI (UO-31 renal): > 100 µM
